Assay results reported in publication PMC6522510 (Nature Communications, 2019).
Counter-ions that a name gives are not always drawn. Like-named read-outs stand apart in the source and are kept apart here.

Tests used:
Parameters in all cases: species or system AML cell lines (8); Primary HTS, single concentration about 10 uM, Cell Titer Glo viability; log10 luminescence, per cent inhibition relative to cycloheximide control
Details in all cases: 72 h, relative to cycloheximide control, log10 luminescence, inhibitor
M07e = system: M07e
MV4-11 = system: MV4-11
U937 = system: U937
CMK = system: CMK
MOLM-13 = system: MOLM-13
ML-2 = system: ML-2
CMS = system: CMS
CHRF288-11 = system: CHRF288-11

SMILES	M07e %inh (M07e; M07e %inh, 10 µM)	MV4-11 %inh (MV4-11; MV4-11 %inh, 10 µM)	U937 %inh (U937; U937 %inh, 10 µM)	CMK %inh (CMK; CMK %inh, 10 µM)	MOLM-13 %inh (MOLM-13; MOLM-13 %inh, 10 µM)	ML-2 %inh (ML-2; ML-2 %inh, 10 µM)	CMS %inh (CMS; CMS %inh, 10 µM)	CHRF288-11 %inh (CHRF288-11; CHRF288-11 %inh, 10 µM)	M07e %inh (M07e)	MV4-11 %inh (MV4-11)	U937 %inh (U937)	CMK %inh (CMK)	MOLM-13 %inh (MOLM-13)	ML-2 %inh (ML-2)	CMS %inh (CMS)	CHRF288-11 %inh (CHRF288-11)
CN[C@@H]1[C@H](O[C@H]2[C@H](O[C@H]3[C@H](O)[C@@H](O)[C@H](N=C(N)N)[C@@H](O)[C@@H]3N=C(N)N)O[C@@H](C)[C@]2(O)C=O)O[C@@H](CO)[C@H](O)[C@H]1O [SJ000285297-5, STREPTOMYCIN SULFATE]	1.975%	1.701%	-2.931%	-3.106%	2.09%	1.375%	-4.665%	-4.766%								
Oc1c(Cl)cc(Cl)c2cccnc12 [SJ000285324-3, CHLOROXINE]									20.56%	77.67%	23.85%	45.1%	6.345%	49.1%	2.824%	73.25%
CC(C)(Oc1ccc(Cl)cc1)C(=O)O [SJ000285361-4, CLOFIBRIC ACID]									1.241%	17.98%	12.99%	-0.9561%	6.685%	4.873%	10.42%	12.15%
COc1ccc(Cl)cc1C(=O)NCCc1ccc(S(=O)(=O)NC(=O)NC2CCCCC2)cc1 [SJ000285391-7, GLYBURIDE | GLIBENCLAMIDE]									3.672%	0.5716%	0.5073%	-6.568%	3.373%	1.589%	-0.9752%	12.75%
CCC1(C)CC(=O)NC1=O (centres unmarked) [SJ000285397-7, ETHOSUXIMIDE]									-0.04938%	-0.6847%	0.5757%	-1.781%	28.73%	3.243%	-0.558%	0.04293%
O=C1CCc2cc(OCCCCc3nnnn3C3CCCCC3)ccc2N1 [SJ000285433-6, CILOSTAZOL]									4.292%	1.479%	-1.919%	3.033%	2.454%	-1.307%	1.219%	-1.23%
COCCOC(=O)C1=C(C)NC(C)=C(C(=O)OC(C)C)C1c1cccc([N+](=O)[O-])c1 (centres unmarked) [SJ000285435-8, NIMODIPINE]	-0.8371%	7.361%	6.247%	-2.491%	3.286%	3.664%	-0.4109%	5.054%								
COCCOC(=O)C1=C(C)NC(C)=C(C(=O)OC(C)C)C1c1cccc([N+](=O)[O-])c1 (centres unmarked) [SJ000285435-9, NIMODIPINE]	0.4803%	8.576%	7.911%	3.053%	3.201%	2.121%	-2.02%	6.868%								
COCCOC(=O)C1=C(C)NC(C)=C(C(=O)OC(C)C)C1c1cccc([N+](=O)[O-])c1 (centres unmarked) [SJ000285435-10, NIMODIPINE]	6.293%	10.46%	7.013%	2.191%	3.657%	3.623%	10.67%	10.94%								
CC1=Nc2ccc(Cl)cc2S(=O)(=O)N1 [SJ000285438-7, DIAZOXIDE]									-1.23%	-7.128%	2.608%	-0.09563%	13.73%	-2.212%	-4.011%	3.174%
COc1ccc2cc(CCC(C)=O)ccc2c1 [SJ000285475-3, NABUMETONE]	3.981%	0.7976%	-2.289%	0.8703%	0.1221%	2.121%	0.5932%	-3.141%								
COc1ccc2cc(CCC(C)=O)ccc2c1 [SJ000285475-4, NABUMETONE]	-0.5005%	-0.967%	0.6601%	3.657%	3.416%	1.434%	-2.394%	-4.035%								
CC(CN(C)C)CN1c2ccccc2Sc2ccccc21 (centres unmarked) [SJ000285488-4, TRIMEPRAZINE TARTRATE]									5.667%	2.005%	3.719%	71.37%	6.284%	2.204%	-1.909%	12.91%
CC(C)(S)[C@@H](N)C(=O)O [SJ000285530-3, PENICILLAMINE]									4.147%	0.7087%	-1.029%	-2.957%	4.905%	0.1436%	1.349%	1.093%
CN1C(C(=O)Nc2ccccn2)=C(O)c2ccccc2S1(=O)=O [SJ000285539-7, PIROXICAM]	-0.7405%	-0.5288%	1.434%	-2.958%	-0.4149%	0.4088%	-2.071%	-2.388%								
CN1C(C(=O)Nc2ccccn2)=C(O)c2ccccc2S1(=O)=O [SJ000285539-8, PIROXICAM]	1.469%	0.9197%	-0.5241%	-3.417%	-0.7172%	0.7358%	1.221%	-0.4698%								
C[C@]12C=CC(=O)C=C1CC[C@@H]1[C@@H]2C(=O)C[C@@]2(C)[C@H]1CC[C@]2(O)C(=O)CO [SJ000285543-4, PREDNISONE]	-1.735%	-0.9421%	-1.889%	-3.067%	-1.419%	-1.792%	-1.906%	3.346%								
C[C@]12C=CC(=O)C=C1CC[C@@H]1[C@@H]2C(=O)C[C@@]2(C)[C@H]1CC[C@]2(O)C(=O)CO [SJ000285543-5, PREDNISONE]	3.17%	0.6819%	-0.6066%	-3.757%	-2.385%	-0.9024%	-1.984%	4.454%								
CCCCC1C(=O)N(c2ccccc2)N(c2ccccc2)C1=O [SJ000285567-6, PHENYLBUTAZONE]									3.977%	1.406%	-1.746%	-7.117%	-1.33%	1.616%	-0.9956%	-2.959%
O=c1c(-c2ccc(O)cc2)coc2cc(O)ccc12 [SJ000285588-6, DAIDZEIN]									1.994%	0.1059%	-0.9488%	-0.373%	-0.07438%	-1.236%	-1.1%	1.05%
CCCCC[C@H](CC(=O)NO)C(=O)N[C@H](C(=O)N1CCC[C@H]1CO)C(C)C [SJ000285589-6, ACTINONIN]									6.094%	13.23%	11.94%	2.47%	22.93%	7.53%	4.96%	7.871%
CCCCC1C(=O)N(c2ccccc2)N(c2ccc(O)cc2)C1=O (centres unmarked) [SJ000285591-4, OXYPHENBUTAZONE]									119.6%	79.54%	81.76%	-9.457%	-3.833%	63.81%	98.27%	-1.743%
